In paper PMC7932521, “2-aminobenzimidazoles for leishmaniasis: From initial hit discovery to in vivo profiling” (PLoS Neglected Tropical Diseases, 2021):

Key:
[1] = tested on: L. panamensis MHOM/PA/71/LS94; test: VL/CL panel, intracellular amastigotes; assay type: cell-based; settings: Leishmania panamensis; average; read-out: IC-50 L. panamensis MHOM/PA/71/LS94
Protocol: (§1) For the antileishmania in vitro assays, 3×10^4 PMM/well were seeded in 96-well plates. After 24h, 5×10^5 amastigotes/well were added and incubated for 2h at 37°C. Next, the compounds in 4-fold serial dilutions were added and the plates were further incubated for 5 days (37°C, 5% CO2). Parasite burdens were assessed using an inverted microscope after Giemsa staining. The results were expressed as percent reduction in parasite burdens compared to negative control wells (100% growth) and IC50 values were determined. Values represent the geometric mean of at least two independent experiments. Miltefosine was used as the positive control in all plates.

[2] = tested on: L. infantum LEM3323-cl4 MIL; test: VL/CL panel, intracellular amastigotes; assay type: cell-based; settings: Leishmania infantum, read-out: IC-50 L. infantum LEM3323-cl4 MIL
Protocol: as §1

[3] = tested on: L. infantum (MHOM/BR/2005/NLC) strain expressing luciferase; assay type: in vivo, Leishmania infantum; settings: 25 mg/kg/day oral
Protocol: Groups of female BALB/c mice (n = 5) were infected with 10^8 stationary phase promastigotes of L. infantum chagasi-LUC in a final volume of 100 μL by the intraperitoneal route. At day 14 post-infection, groups were orally treated for 5 days with either drug vehicle only (10% ethanol, 40% PEG400 and 0.4% Tween80 in saline buffer—pH adjusted to 9), miltefosine (40 mg/kg QD) or with compounds 29 and 39 (25 mg/kg QD). Light emission in the ventral abdominal cavity of infected animals was recorded by bioimaging (IVIS Spectrum, Caliper Life Sciences) on 14, 19- and 24-days post-infection. Before imaging, mice received 75 mg/kg VivoGlo™ Luciferin (Promega Corporation) (i.p.) and were anesthetized in a 2% isoflurane atmosphere (Cristália). Animals were then transferred to the imaging chamber and kept in a 2% isoflurane atmosphere. Emitted photons were collected using the high resolution (medium binning) mode. Total photon emission from a defined region of interest (ROI) corresponding to the whole abdominal area was registered. The same ROI was applied to all animals in any given group. Images were acquired 15 min after luciferin injection. Total photon emission from each mouse was quantified with Living Image software version 4.3.1 (Caliper Life Sciences), and results were expressed as the number of photons/s/ROI subtracted from the corresponding ROI in uninfected animals. The detected signal was presented as a pseudocolor image representing light intensity (red = most intense and blue = least intense) and superimposed on the gray scale reference image.

[4] = Mouse single-dose pharmacokinetics; assay type: in vivo; settings: female, BALB/c, plasma, single oral dose 10 mg/kg
[5] = tested on: L. braziliensis MHOM/BR/94/H3227; test: VL/CL panel, intracellular amastigotes; assay type: cell-based; settings: Leishmania braziliensis; average; read-out: IC-50 L. braziliensis MHOM/BR/94/H3227
Protocol: as §1

Row | Compound | IC50 [1] [nM] | IC50 [2] [µM] | toxicity in infected mice [3] | AUC(0-t) [4] [ng·h/mL] | Cmax [4] [ng/mL] | bioavailability [4] [%] | half-life [4] [min] | IC50 [5] [µM] | parasite load (bioluminescence) ([3]; 5 days, end of treatment or washout)
1 | Cn1nc(C(F)(F)F)cc1C(=O)Nc1nc2ccc(C#N)cc2n1CC(F)(F)F [Compound 39, O=C(c1cc(C(F)(F)F)nn1C)Nc2nc(ccc(C#N)c3)c3n2CC(F)(F)F] | 1220 | 4.16 | severe toxic effects |  |  |  |  |  | 
2 | Cn1nccc1C(=O)Nc1nc2ccc(C#N)cc2n1CC(C)(C)C [Compound 29, O=C(Nc1n(CC(C)(C)C)c(c2n1)cc(C#N)cc2)c3n(C)ncc3] | 630 | 2.16 | one animal was euthanized due to severe clinical signs of distress | 8160 | 1000 | 72 | 474 | 24.8 | no decrease in parasite load
